ChEMBL document CHEMBL5260832, “Hepatoprotective natural triterpenoids” (Eur J Med Chem, 2018)

Experiments:
[1] = Hepatotoxicity in D-GaIN induced Wistar rat assessed as change in induction of TAT level for 10 days relative to control; type: toxicity; design: concentration or dose not given beside the values; conditions: in vivo, 240 h, time 10 day
[2] = Hepatotoxicity in D-GaIN induced Wistar rat assessed as change in GTP leakage level for 10 days relative to control; type: toxicity; conditions: in vivo, 240 h, time 10 day
HepG2 [3] = assay: Hepatoprotective activity against H2O2-induced human HepG2 cells assessed as increase in ALT level; type: functional
HepG2 [4] = assay: Hepatoprotective activity against H2O2-induced human HepG2 cells assessed as increase in AST level; type: functional
Mus musculus [5] = species: Mus musculus; assay: Hepatoprotective activity against D-GaIN/LPS induced liver injury mouse model assessed as increase in sAST relative to control; type: functional
Mus musculus [6] = species: Mus musculus; assay: Hepatoprotective activity against D-GaIN/LPS induced liver injury mouse model assessed as increase in sALT relative to control; type: functional
HepG2 [7] = assay: Hepatoprotective activity against H2O2-induced cell death in human HepG2 cells assessed as reduction in ALT level at 20 uM preincubated for 1 hr followed by H2O2-stimulation and measured after 24 hrs; type: functional
HepG2 [8] = assay: Hepatoprotective activity against H2O2-induced cell death in human HepG2 cells assessed as reduction in AST level at 20 uM preincubated for 1 hr followed by H2O2-stimulation and measured after 24 hrs; type: functional
L02 [9] = assay: Protection against D-GalN-induced toxicity in L02 cells […] assessed as reduction in cell growth relative to control; type: functional, Homo sapiens; design: scale not given: the % may be the effect or the level left
Mus musculus [10] = assay: Hepatoprotective activity against D-GaIN/CCl4 induced liver injury mouse model assessed as reduction in GPT level at 30 microg/kg, iv relative to control; type: functional; design: scale not given: the % may be the effect or the level left; conditions: dose 30 µg/kg
[11] = Hepatotoxicity in rat hepatocyte assessed as change in GSH level at 30 microg/mL relative to control; type: toxicity, cell-based; conditions: hepatocytes, at 30 µg/mL
Mus musculus [12] = species: Mus musculus; assay: Hepatoprotective activity in mouse liver homogenate assessed as inhibition of iron/ascorbate lipid peroxidation at 0.1 mg/mL relative to control; type: functional; design: scale not given: the % may be the effect or the level left
Mus musculus [13] = assay: Hepatoprotective activity against D-GaIN/LPS induced liver injury mouse model assessed as reduction in sALT at 100 mg/kg, ip relative to control; type: functional; design: scale not given: the % may be the effect or the level left
Mus musculus [14] = assay: Hepatoprotective activity against D-GaIN/LPS induced liver injury mouse model assessed as reduction in sAST at 100 mg/kg, ip relative to control; type: functional; design: scale not given: the % may be the effect or the level left
Hepatocyte [15] = assay: Hepatoprotective activity against D-GaIN/TNFalpha-induced cell death in mouse hepatocyte at 25 uM relative to control; type: functional
Hepatocyte [16] = assay: Hepatoprotective activity against D-GaIN/TNFalpha-induced cell death in mouse hepatocyte at 100 uM relative to control; type: functional, cell-based; conditions: dose 100 µM
L02 [17] = assay: Hepatoprotective activity against D-GaIN-induced in human HL7702 cells assessed as cell damage at 10 uM relative to control; type: functional
Mus musculus [18] = species: Mus musculus; assay: Hepatoprotective activity in mouse liver homogenate assessed as inhibition of iron/ascorbate lipid peroxidation at 5.0 mg/mL relative to control; type: functional; design: scale not given: the % may be the effect or the level left

Compound: C[C@H]1[C@H](C)CC[C@@]2(C)[C@@H]1C1=CC[C@@H]3[C@@]4(C)CC[C@H](O)C(C)(C)[C@@H]4CC[C@@]3(C)[C@]1(C)C[C@@H]2O
- Activity [1]: 39.8%
- Activity [2]: 46.7%

Compound: COC(=O)C(C)[C@@H](O)C(=O)C[C@@H](C)[C@H]1C[C@H](O)[C@@]2(C)[C@@H]3C(=O)C[C@H]4C(C)(C)[C@@H](O)CC[C@]4(C)[C@H]3C(=O)C[C@]12C (stereo partly specified)
- Activity (HepG2 [3]): 18.51 U/L
- Activity (HepG2 [4]): 19.5 U/L

Compound: CC(C)=CCC[C@](C)(O[C@@H]1O[C@H](CO)[C@@H](O)[C@H](O)[C@H]1O)[C@H]1CC[C@]2(C)[C@@H]1[C@H](O)C[C@@H]1[C@@]3(C)CC[C@H](O)C(C)(C)[C@@H]3[C@@H](O[C@@H]3O[C@H](CO)[C@@H](O)[C@H](O)[C@H]3O)C[C@]12C [GINSENOSIDE RG1]
- Activity (Mus musculus [5]): 12%
- Activity (Mus musculus [6]): 30%

Compound: CC(C)=CC[C@@H](O)[C@@H](C)[C@H]1CC[C@@]2(C)C3=CC[C@H]4C(C)(C)[C@@H](O)CC[C@]4(C)C3=CC[C@]12C
- Activity (HepG2 [7]): 23.22 U/L
- Activity (HepG2 [8]): 32.36 U/L

Compound: CC(C)[C@]1(CO)CC[C@@H]([C@H]2[C@H](O)C[C@]3(C)[C@@H]2CC[C@@H]2[C@@]4(C)CC[C@H](O[C@@H]5O[C@H](CO)[C@@H](O)[C@H](O)[C@H]5O[C@@H]5O[C@H](CO)[C@@H](O)[C@H](O)[C@H]5O)C(C)(C)[C@@H]4CC[C@]23C)O1
- Activity (L02 [9]): 22.2%

Compound: C=C(C)[C@@H]1C[C@H](O)C2=C(C(=O)C[C@]3(C)[C@@H]([C@H](C)CCC(=O)O)CC[C@@]23C)[C@@]1(C)CCC(=O)OC
- Activity (HepG2 [7]): 16.06 U/L
- Activity (HepG2 [8]): 19.09 U/L

Compound: CC(C)=CCC[C@](C)(O)[C@H]1CC[C@]2(C)[C@@H]1[C@H](O)C[C@@H]1[C@@]3(C)CC[C@H](O)C(C)(C)[C@@H]3[C@@H](O[C@@H]3O[C@H](CO)[C@@H](O)[C@H](O)[C@H]3O)C[C@]12C [GINSENOSIDE RH1]
- Activity (Mus musculus [10]): 72%
- Activity (Mus musculus [5]): 90%
- Activity (Mus musculus [6]): 93%

Compound: CC(=O)[C@H]1CC(=O)[C@@]2(C)C3=C(C(=O)C[C@]12C)[C@@]1(C)CC[C@H](O)C(C)(C)[C@@H]1C[C@@H]3O [LUCIDONE A]
- Activity (HepG2 [3]): 17.46 U/L
- Activity (HepG2 [4]): 21.18 U/L

Compound: C/C(=C\CC[C@@H](C)[C@H]1CC[C@@]2(C)C3=CC[C@H]4C(C)(C)[C@@H](O)CC[C@]4(C)C3=CC[C@]12C)CO [GANODEROL B]
- Activity (HepG2 [3]): 18.97 U/L
- Activity (HepG2 [4]): 26.42 U/L

Compound: C[C@H]1O[C@@H](O[C@H]2CC[C@@]3(C)[C@@H](CC[C@]4(C)[C@@H]3[C@H](O)C=C3[C@@H]5CC(C)(C)CC[C@]5(CO)[C@@H](O)C[C@]34C)[C@]2(C)CO)[C@H](O)[C@@H](O[C@@H]2O[C@H](CO)[C@@H](O)[C@H](O)[C@H]2O)[C@H]1O
- Activity [11]: 46.5%

Compound: CC(C)(O)[C@@H]1CC[C@@H]([C@H]2[C@H](O)C[C@]3(C)[C@@H]2CC[C@@H]2[C@@]4(C)CC[C@H](O[C@@H]5O[C@H](CO)[C@@H](O)[C@H](O)[C@H]5O[C@@H]5O[C@H](CO)[C@@H](O)[C@H](O)[C@H]5O)C(C)(C)[C@@H]4CC[C@]23C)O1
- Activity (L02 [9]): 69.5%

Compound: C=C(C)[C@@H]1CC[C@]2(C(=O)O)CC[C@]3(C)[C@H](CC[C@@H]4[C@@]5(C)C[C@@H](O)[C@H](O)C(C)(C)[C@@H]5CC[C@]43C)[C@@H]12
- Activity (Mus musculus [12]): 13.7%

Compound: CC(C)=CCC[C@](C)(O)C1CC[C@]2(C)[C@@H]1[C@H](O[C@H]1O[C@@H](CO[C@H]3OC[C@H](O)[C@@H](O)[C@@H]3O)[C@H](O)[C@@H](O)[C@@H]1O)C[C@@H]1[C@@]3(C)CC[C@H](O[C@@H]4O[C@H](CO)[C@@H](O)[C@H](O)[C@H]4O[C@@H]4O[C@H](CO)[C@@H](O)[C@H](O)[C@H]4O)C[C@@H]3CC[C@]12C (stereo partly specified)
- Activity (Mus musculus [13]): 33%
- Activity (Mus musculus [14]): 40%
- Activity (Mus musculus [5]): 40%
- Activity (Mus musculus [6]): 33%

Compound: CC1(C)CC[C@]2(C(=O)O)CC[C@]3(C)[C@H](C=C[C@@H]4[C@@]5(C)C[C@@H](O)[C@H](O)[C@](C)(CO)[C@@H]5CC[C@]43C)[C@H]2C1
- Activity (Hepatocyte [15]): 15.4%
- Activity (Hepatocyte [16]): 108.4%

Compound: CC(C)=C[C@H]1C[C@@H]([C@@H]2CC[C@]3(C)C4=CC(=O)[C@H]5C(C)(C)[C@H](O)CC[C@]5(C)[C@H]4CC[C@@]23C)C(=O)O1
- Activity (L02 [17]): 30.4%

Compound: C[C@H]1[C@H](C)CC[C@@]2(C)[C@@H]1C1=CC[C@@H]3[C@@]4(C)CC[C@@H](O)C(C)(C)[C@@H]4CC[C@@]3(C)[C@]1(C)C[C@@H]2O
- Activity [1]: 48%
- Activity [2]: 22.7%

Compound: CC(C)=CCC[C@H](C(=O)O)[C@@H]1CC[C@]2(C)C3=C(CC[C@@]12C)[C@@]1(C)CC[C@@H](O)C(C)(C)[C@@H]1CC3
- Activity (L02 [17]): 30.1%

Compound: CC(C)=CCC[C@H](C(=O)O)[C@@H]1CC[C@]2(C)C3=C(CC[C@@]12C)[C@@]1(C)CC[C@H](O)C(C)(C)[C@@H]1CC3
- Activity (L02 [17]): 50.5%

Compound: CC(C)=CCC[C@](C)(O)C1CC[C@]2(C)[C@@H]1[C@H](O[C@H]1O[C@@H](CO[C@@H]3O[C@@H](CO)[C@H](O)[C@H]3O)[C@H](O)[C@@H](O)[C@@H]1O)C[C@@H]1[C@@]3(C)CC[C@H](O[C@@H]4O[C@H](CO)[C@@H](O)[C@H](O)[C@H]4O[C@@H]4O[C@H](CO)[C@@H](O)[C@H](O)[C@H]4O)C[C@@H]3CC[C@]12C (stereo partly specified)
- Activity (Mus musculus [13]): 33%
- Activity (Mus musculus [14]): 40%
- Activity (Mus musculus [5]): 87%
- Activity (Mus musculus [6]): 89%

Compound: C[C@H]1O[C@@H](O[C@H]2CC[C@@]3(C)[C@@H](CC[C@]4(C)[C@@H]3C(=O)C=C3[C@@H]5CC(C)(C)CC[C@]5(CO)[C@@H](O)C[C@]34C)[C@]2(C)CO)[C@H](O)[C@@H](O[C@@H]2O[C@H](CO)[C@@H](O)[C@H](O)[C@H]2O)[C@H]1O
- Activity [11]: 90.9%

Compound: CC1(C)CC[C@]2(C(=O)O)CC[C@]3(C)[C@H](C=C[C@@H]4[C@@]5(C)C[C@@H](O)[C@H](O)C(C)(C)[C@@H]5[C@H](O)C[C@]43C)[C@H]2[C@@H]1O
- Activity (Hepatocyte [15]): 15.4%
- Activity (Hepatocyte [16]): 24.4%

Compound: C=C(C)[C@@H]1C[C@H](O)C2=C(C(=O)C[C@]3(C)[C@@H]([C@H](C)CCC(=O)O)CC[C@@]23C)[C@@]1(C)CCC(=O)O
- Activity (HepG2 [7]): 16.06 U/L
- Activity (HepG2 [8]): 19.09 U/L

Compound: CC(C)=CCC[C@H](C(=O)O)[C@@H]1CC[C@]2(C)C3=C(CC[C@@]12C)[C@@]1(C)CCC(=O)C(C)(C)[C@@H]1CC3=O
- Activity (L02 [17]): 25.6%

Compound: CC1(C)CC[C@]2(C(=O)O)CC[C@]3(C)C(=CC[C@@H]4[C@@]5(C)C[C@@H](O)[C@@H](O)C(C)(C)[C@@H]5CC[C@]43C)[C@@H]2C1
- Activity (Mus musculus [18]): 52.7%
- Activity (Mus musculus [12]): 16.8%

Compound: CC(C)=CCC[C@](C)(O)C1CC[C@]2(C)[C@@H]1[C@H](O[C@H]1O[C@@H](CO[C@H]3O[C@@H](CO)[C@H](O)[C@@H](O)[C@@H]3O)[C@H](O)[C@@H](O)[C@@H]1O)C[C@@H]1[C@@]3(C)CC[C@H](O[C@@H]4O[C@H](CO)[C@@H](O)[C@H](O)[C@H]4O[C@@H]4O[C@H](CO)[C@@H](O)[C@H](O)[C@H]4O)C[C@@H]3CC[C@]12C (stereo partly specified)
- Activity (Mus musculus [13]): 33%
- Activity (Mus musculus [14]): 40%

Compound: C=C(C)[C@@H]1C[C@H](O)C2=C(C(=O)C[C@]3(C)[C@@H]([C@H](C)CCC(=O)OC)CC[C@@]23C)[C@@]1(C)CCC(=O)OC
- Activity (HepG2 [7]): 16.06 U/L
- Activity (HepG2 [8]): 19.09 U/L

Compound: CO[C@@H]1C=C2[C@@H]3CC(C)(C)CC[C@]3(CO)[C@@H](O)C[C@@]2(C)[C@]2(C)CC[C@H]3C(C)(C)[C@@H](O[C@@H]4O[C@H](C)[C@H](O)[C@H](O[C@@H]5O[C@H](CO)[C@@H](O)[C@H](O)[C@H]5O)[C@H]4O)CC[C@]3(C)[C@@H]12
- Activity [11]: 75%

Compound: CC1(C)CC[C@]2(C(=O)O)CC[C@]3(C)[C@H](C=C[C@@H]4[C@@]5(C)C[C@@H](O)[C@H](O)C(C)(C)[C@@H]5CC[C@]43C)[C@H]2[C@@H]1O
- Activity (Hepatocyte [15]): 15.4%
- Activity (Hepatocyte [16]): 32.9%
